Data from patent US10285382B2 (priority 2017, dated 2019).
Where “and” joins values, the source holds several entries; their conditions need not be identical. Identical values can stand only once. Like-named read-outs stand apart in the source and are kept apart here.

Test system: eggs
[1] = 4 day delta: Day 4 DHP+ versus Day 4 DHP−
[2] = 5 day delta: Day 5 DHP+ versus Day 5 DHP−
[3] = 6 day delta: Day 6 DHP+ versus Day 6 DHP−
[4] = Day 4 DHP+, summary over replicates stored 4 days
[5] = Day 5 DHP+, summary over replicates stored 5 days
[6] = Day 6 DHP+, summary over replicates stored 6 days
[7] = Day 7 DHP+, summary over replicates stored 7 days
[8] = Day 7 Delta: Day 7 DHP+ versus Day 7 DHP−
[9] = Delta: Avg. Trtd versus Avg. Untrd, all storage times
[10] = an additional day (five days) of DHP gas treatment, vs untreated
[11] = eggs treated four days, vs untreated
[12] = seven day storage, vs untreated
[13] = with DHP gas, Mean / Avg. Trtd of 22 replicates, storage 4 to 7 days
[14] = with DHP gas, egg storage 4 days, single replicates of 90 eggs
[15] = with DHP gas, egg storage 5 days, single replicates of 90 eggs
[16] = with DHP gas, egg storage 6 days, single replicates of 90 eggs
[17] = with DHP gas, egg storage 7 days, single replicates of 90 eggs
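Further: paired egg replicates incubated to hatching under standard commercial conditions, then each category scored at hatch as percent of eggs in the replicate.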

Description: A total of 22 replicates of 90 eggs each of age matched, flock matched eggs are stored prior to incubation for 4 to 7 days in an on-site egg room at about 20° C. […] The paired replicates are then incubated to hatching under standard commercial conditions. At hatching, the following parameters are assessed and recorded: Total Hatchability (%), Fertile Hatchability (%), % Infertile, Early dead (%), Mid dead (%), Late dead (%), Cracked (%), Contaminated (%), Live pip (%), Dead pip (%), Cull dead chick (%), Chick Weight (g), Chick A (%), and Chick B (%).

OO [DHP, dry hydrogen peroxide]
% Infertile, delta [1]: 0.64% | Chick A, delta [1]: 0.14% | Chick B, delta [1]: −0.14% | Chick Weight, delta [1]: 0.89 g | Cont, delta [1]: 0.00% | Crack, delta [1]: 0.32% | Cull dead cks, delta [1]: 0.00% | Dead pip, delta [1]: −0.16% | Early dead, delta [1]: −0.33% | Fertile Hatchability, delta [1]: 0.12% | Late dead, delta [1]: −0.64% | Live pip, delta [1]: 0.63% | Mid dead, delta [1]: 0.16% | Total Hatchability, delta [1]: −0.64% | % Infertile, delta [2]: 1.84% | Chick A, delta [2]: 1.73% | Chick B, delta [2]: −1.73% | Chick Weight, delta [2]: 0.85 g | Cont, delta [2]: 0.00% | Crack, delta [2]: −0.19% | Cull dead cks, delta [2]: 0.00% | Dead pip, delta [2]: −0.37% | Early dead, delta [2]: −1.70% | Fertile Hatchability, delta [2]: 3.20% | Late dead, delta [2]: −2.05% | Live pip, delta [2]: 0.37% | Mid dead, delta [2]: 0.74% | Total Hatchability, delta [2]: 1.36% | % Infertile, delta [3]: 0.94% | Chick A, delta [3]: −0.57% | Chick B, delta [3]: 0.57% | Chick Weight, delta [3]: 0.49 g | Cont, delta [3]: 0.00% | Crack, delta [3]: 0.00% | Cull dead cks, delta [3]: −0.48% | Dead pip, delta [3]: −0.48% | Early dead, delta [3]: −2.77% | Fertile Hatchability, delta [3]: 4.67% | Late dead, delta [3]: −0.82% | Live pip, delta [3]: −0.16% | Mid dead, delta [3]: 0.48% | Total Hatchability, delta [3]: 2.96% | % Infertile [4]: 2.39% | Chick A [4]: 96.98% | Chick B [4]: 3.02% | Chick Weight [4]: 44.69 g | Cont [4]: 0.00% | Crack [4]: 0.48% | Cull dead cks [4]: 0.00% | Dead pip [4]: 0.16% | Early dead [4]: 4.12% | Fertile Hatchability [4]: 92.21% | Late dead [4]: 1.74% | Live pip [4]: 0.95% | Mid dead [4]: 0.16% | Total Hatchability [4]: 89.99% | % Infertile [5]: 4.44% | Chick A [5]: 98.37% | Chick B [5]: 1.64% | Chick Weight [5]: 44.29 g | Cont [5]: 0.00% | Crack [5]: 0.00% | Cull dead cks [5]: 0.00% | Dead pip [5]: 0.00% | Early dead [5]: 1.85% | Fertile Hatchability [5]: 95.33% | Late dead [5]: 1.11% | Live pip [5]: 0.56% | Mid dead [5]: 0.93% | Total Hatchability [5]: 91.11% | % Infertile [6]: 2.22% | Chick A [6]: 96.88% | Chick B [6]: 3.12% | Chick Weight [6]: 44.30 g | Cont [6]: 0.00% | Crack [6]: 0.00% | Cull dead cks [6]: 0.00% | Dead pip [6]: 0.00% | Early dead [6]: 2.70% | Fertile Hatchability [6]: 94.14% | Late dead [6]: 2.06% | Live pip [6]: 0.16% | Mid dead [6]: 0.79% | Total Hatchability [6]: 92.06% | % Infertile [7]: 0.56% | Chick A [7]: 97.06% | Chick B [7]: 2.94% | Chick Weight [7]: 44.68 g | Cont [7]: 0.00% | Crack [7]: 0.00% | Cull dead cks [7]: 0.56% | Dead pip [7]: 0.00% | Early dead [7]: 1.11% | Fertile Hatchability [7]: 94.98% | Late dead [7]: 1.67% | Live pip [7]: 1.11% | Mid dead [7]: 0.56% | Total Hatchability [7]: 94.44% | % Infertile, delta [8]: 0.00% | Chick A, delta [8]: −1.17% | Chick B, delta [8]: 1.17% | Chick Weight, delta [8]: 1.10 g | Cont, delta [8]: −0.56% | Crack, delta [8]: 0.00% | Cull dead cks, delta [8]: 0.56% | Dead pip, delta [8]: 0.00% | Early dead, delta [8]: −2.78% | Fertile Hatchability, delta [8]: 0.56% | Late dead, delta [8]: 0.55% | Live pip, delta [8]: 1.11% | Mid dead, delta [8]: 0.56% | Total Hatchability, delta [8]: 0.56% | % Infertile, delta [9]: 1.00% | Chick A, delta [9]: 0.23% | Chick B, delta [9]: −0.23% | Chick Weight, delta [9]: 0.77 g | Cont, delta [9]: −0.05% | Crack, delta [9]: 0.05% | Cull dead cks, delta [9]: −0.10% | Dead pip, delta [9]: −0.30% | Early dead, delta [9]: −1.70% | Fertile Hatchability, delta [9]: 2.45% | Late dead, delta [9]: −0.97% | Live pip, delta [9]: 0.35% | Mid dead, delta [9]: 0.45% | Total Hatchability, delta [9]: 1.16% | increase in fertile hatchability [10]: 3.2% | increase in total hatchability [10]: 1.3% | increased weight [10]: 0.85 grams | DHP gas treated eggs observed to be contaminated (at day 7): none | decrease in number of early deaths (death during incubation, vs untreated): about 1.7% | change in fertile hatchability [11]: 0.12% | change in total hatchability [11]: −0.64% | increased weight [11]: 0.89 g | increase of fertile hatchability [12]: 0.56% | increase of total hatchability [12]: 0.56% | increased weight [12]: 1.10 grams | increase of fertile hatchability (six days, vs untreated): 4.67% | increase of total hatchability (six days, vs untreated): 2.96% | increased weight (six days, vs untreated): 0.49 grams | mid cycle deaths (vs untreated): decreased | number of live pip eggs (vs untreated): increases | improvement in number of A grade chicks (vs untreated eggs): 0.23% | increase of average chick weight (vs untreated eggs, on-site storage 4 to 7 days at about 20° C.): 0.77 grams | increase of average chick weight (vs untreated eggs, on-site storage 4 to 7 days, listed as DHP gas): 1.7% and 1.8% | % Infertile [13]: 2.73% | Chick A [13]: 97.34% | Chick B [13]: 2.66% | Chick Weight [13]: 44.46 g | Cont [13]: 0.00% | Crack [13]: 0.15% | Cull dead cks [13]: 0.05% | Dead pip [13]: 0.05% | Early dead [13]: 2.78% | Fertile Hatchability [13]: 93.93% | Late dead [13]: 1.67% | Live pip [13]: 0.61% | Mid dead [13]: 0.61% | Total Hatchability [13]: 91.36% | Cont [14]: 0.00% | Crack [14]: 0.00% (5×) and 1.11% and 2.22% | Cull dead [14]: 0.00% | Dead pip [14]: 0.00% (6×) and 1.11% | Live pip [14]: 1.11% (2×) and 0.00% (4×) and 4.44% | Mid dead [14]: 0.00% (6×) and 1.11% | Cont [15]: 0.00% | Crack [15]: 0.00% | Cull dead [15]: 0.00% | Dead pip [15]: 0.00% | Early dead [15]: 2.22% (2×) and 1.11% (3×) and 3.33% | Late dead [15]: 0.00% (3×) and 2.22% (3×) | Live pip [15]: 0.00% (4×) and 1.11% and 2.22% | Mid dead [15]: 0.00% (2×) and 1.11% (3×) and 2.22% | Cont [16]: 0.00% | Crack [16]: 0.00% | Cull dead [16]: 0.00% | Dead pip [16]: 0.00% | Early dead [16]: 2.22% (5×) and 3.33% and 4.44% | Live pip [16]: 0.00% (6×) and 1.11% | Mid dead [16]: 1.11% (3×) and 0.00% (3×) and 2.22% | % Infer [17]: 1.11% and 0.00% | Chick A [17]: 96.47% and 97.65% | Chick B [17]: 3.53% and 2.35% | Chick Weight [17]: 44.94 g and 44.41 g | Cont [17]: 0.00% | Crack [17]: 0.00% | Cull dead [17]: 1.11% and 0.00% | Dead pip [17]: 0.00% | Early dead [17]: 1.11% | Fertile Hatchblty [17]: 95.51% and 94.44% | Late dead [17]: 2.22% and 1.11% | Live pip [17]: 0.00% and 2.22% | Mid dead [17]: 0.00% and 1.11% | Total Hatchblty [17]: 94.44%
